In patent US10294234B2, “HIV inhibitor compounds” (priority 2017, dated 2019):
pEC50: −log10 of the molar value. Read-outs that look alike come from different tables or passages of the source.

How the values were obtained:
[1] = system: HIV-1 (IIIB) in MT-4 cells; test: MT-4 HIV assay; format: cell-based; details: Human immunodeficiency virus 1, MT4, 120 h
How it was run: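 MT-4 cells infected with HIV-1 IIIB (1:250 stock dilution) were incubated with 1:3 serially diluted compounds in RPMI with 10% FBS for 5 days at 37 °C. Cell Titer Glo luminescence was the readout. Plates included mock-infected wells, no-drug wells and 5 uM AZT controls.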

[2] = Procedure: Liver Microsomal Stability Protocol
Test compounds and one control compound (verapamil) were tested in 3 different species in duplicate sets.
Test compound concentration: 1 uM; Protein concentration: 0.5 mg/mL (for dog, rat, and human liver microsomes); Cofactor: NADPH-Regenerating system (NRS) solution; Time-points: 2, 12, 25, 45, and 65 minutes.
Reaction composition (in each incubation well) contains:
After plates were vortexed, they were centrifuged for 30 minutes to remove proteins. About 100 μL supernatant was removed to a new plate and diluted with 150 μL water. About 20 μL of the mixture was injected into LC/MS/MS system to monitor the compound's response. In vitro measured t1/2 was used to calculate Clint values.

[3] = human liver microsomes 0.5 mg/mL, 1 uM compound, NADPH
[4] = rat liver microsomes 0.5 mg/mL, 1 uM compound, NADPH
[5] = HIV-1 (IIIB), MT-4 cells, 5 days, Cell Titer Glo, read-out: EC50

Row | SMILES | pEC50 [1] | Human Pred Cl. [2, 3] [L/H/kg] | Rat. Pred. Cl. [2, 4] [L/H/kg] | pEC50 [1, 5] | Human Pred Cl. ([2]; human, microsomes) [L/H/kg] | Rat. Pred. Cl. ([2]; rat, microsomes) [L/H/kg] | Dog. Pred. Cl. ([2]; dog liver microsomes 0.5 mg/mL, 1 uM compound, NADPH) [L/H/kg]
1 | COC(=O)N[C@H](C(=O)N[C@@H](Cc1ccc(C#Cc2ccc(N3C[C@@H]4C[C@H]3CN4C3COC3)nc2)cc1)[C@@H](O)CN(Cc1c(F)cc(-c2ccn(C3CC3)n2)cc1F)NC(=O)[C@@H](NC(=O)OC)C(C)(C)C(F)(F)F)C(C)(C)C(F)(F)F [Example 39, Methyl ((5S,8S,9S,14S)-11-(4-(1-cyclopropyl-1H-pyrazol-3-yl)-2,6-difluorobenzyl)-16,16,16-trifluoro-9-hydroxy-15,15-dimethyl-8-(4-((6-((1S,4S)-5-(oxetan-3-yl)-2,5-diazabicyclo[2.2.]heptan-2-yl)pyridin-3-yl)ethynyl)benzyl)-3,6,13-trioxo-5-(1,1,1-trifluoro-2-methylpropan-2-yl)-2-oxa-4,7,11,12-tetraazahexadecan-14-yl)carbamate] | 8.59 | 0.15 | 0.54 | – | – | – | –
2 | COC(=O)N[C@H](C(=O)N[C@@H](Cc1ccc(C#Cc2ccc(N3CC4CC(C3)N4C3COC3)nc2)cc1)[C@@H](O)CN(Cc1c(F)cc(-c2ccn(C3CC3)n2)cc1F)NC(=O)[C@@H](NC(=O)OC)C(C)(C)C(F)(F)F)C(C)(C)C(F)(F)F [Example 40, Methyl ((5S,8S,9S,14S)-11-(4-(1-cyclopropyl-1H-pyrazol-3-yl)-2,6-difluorobenzyl)-16,16,16-trifluoro-9-hydroxy-15,15-dimethyl-8-(4-((6-(6-(oxetan-3-yl)-3,6-diazabicyclo[3.1.1]heptan-3-yl)pyridin-3-yl)ethynyl)benzyl)-3,6,13-trioxo-5-(1,1,1-trifluoro-2-methylpropan-2-yl)-2-oxa-4,7,11,12-tetraazahexadecan-14-yl)carbamate] | – | – | – | 8.41 | 0.13 | 0.5 | –
3 | COC(=O)N[C@H](C(=O)N[C@@H](Cc1ccc(C#Cc2ccc(N3C[C@H]4C[C@@H]3CN4C3COC3)nc2)cc1)[C@@H](O)CN(Cc1c(F)cc(-c2ccn(CC(F)F)n2)cc1F)NC(=O)[C@@H](NC(=O)OC)C(C)(C)C(F)(F)F)C(C)(C)C(F)(F)F [Example 43, Methyl ((5S,8S,9S,14S)-11-(4-(1-(2,2-difluoroethyl)-1H-pyrazol-3-yl)-2,6-difluorobenzyl)-16,16,16-trifluoro-9-hydroxy-15,15-dimethyl-8-(4-((6-((1R,4R)-5-(oxetan-3-yl)-2,5-diazabicyclo[2.2.1]heptan-2-yl)pyridin-3-yl)ethynyl)benzyl)-3,6,13-trioxo-5-(1,1,1-trifluoro-2-methylpropan-2-yl)-2-oxa-4,7,11,12-tetraazahexadecan-14-yl)carbamate] | 8.54 | 0.16 | 1.01 | – | – | – | 1.66
4 | COC(=O)N[C@H](C(=O)N[C@@H](Cc1ccc(C#Cc2ccc(N3CC4COCC(C3)N4C)nc2)cc1)[C@@H](O)CN(Cc1c(F)cc(-c2ccn(C(F)F)n2)cc1F)NC(=O)[C@@H](NC(=O)OC)C(C)(C)C(F)(F)F)C(C)(C)C(F)(F)F [Example 44, Methyl ((5S,8S,9S,14S)-11-(4-(1-(difluoromethyl)-1H-pyrazol-3-yl)-2,6-difluorobenzyl)-16,16,16-trifluoro-9-hydroxy-15,15-dimethyl-8-(4-((6-(9-methyl-3-oxa-7,9-diazabicyclo[3.3.1]nonan-7-yl)pyridin-3-yl)ethynyl)benzyl)-3,6,13-trioxo-5-(1,1,1-trifluoro-2-methylpropan-2-yl)-2-oxa-4,7,11,12-tetraazahexadecan-14-yl)carbamate] | – | – | – | 8.40 | 0.13 | 2.54 | –
